In ChEMBL document CHEMBL1127269, “Synthesis and DNA binding properties of a series of N to C linked and imidazole containing analogues of distamycin” (Bioorg Med Chem Lett, 1994):

How the values were obtained:
Assay type in all cases: nucleic-acid assay
Nucleic Acid [1] = assay: Tested for binding association constant against calf thymus using ethidium bromide assay; conditions: Bos taurus
Nucleic Acid [2] = assay: Tested for binding association constant against Poly (dA.dT) using ethidium bromide assay
Nucleic Acid [3] = assay: Tested for binding association constant against Poly (dG-dC) using ethidium bromide assay
Nucleic Acid [4] = assay: Tested for binding association constant against T4 coliphage DNA using ethidium bromide assay
Nucleic Acid [5] = assay: Tested for binding association constant against calf thymus DNA using ethidium bromide assay; conditions: Bos taurus

SMILES	K app (Nucleic Acid [1]) [M⁻¹]	K app (Nucleic Acid [2]) [M⁻¹]	K app (Nucleic Acid [3]) [M⁻¹]	K app (Nucleic Acid [4]) [M⁻¹]	K app (Nucleic Acid [5]) [M⁻¹]
CN(C)CCNC(=O)c1nc(NC(=O)CCCNC(=O)c2nc(NC=O)cn2C)cn1C	10000	10000	21000	33000	
CN(C)CCNC(=O)c1nc(NC(=O)CCNC(=O)c2nc(NC=O)cn2C)cn1C	150000	12000	580000	140000	
Cn1cc(NC(=O)c2cc(NC(=O)c3cc(NC=O)cn3C)cn2C)cc1C(=O)NCCC(=N)N		3.48e+07	200000	650000	770000

Results, then the compound that gave them:

K app (Nucleic Acid [1]) [M⁻¹]	K app (Nucleic Acid [2]) [M⁻¹]	K app (Nucleic Acid [3]) [M⁻¹]	K app (Nucleic Acid [4]) [M⁻¹]	K app (Nucleic Acid [5]) [M⁻¹]	SMILES
48000	50000	92000	140000		CN(C)CCNC(=O)c1nc(NC(=O)c2nc(NC(=O)CCCNC(=O)c3nc(NC=O)cn3C)cn2C)cn1C
1.6e+06	250000	5.2e+06	1.9e+06		CN(C)CCNC(=O)c1nc(NC(=O)c2nc(NC(=O)CCNC(=O)c3nc(NC=O)cn3C)cn2C)cn1C
